The values below come from US11384079B2, “6-5 fused rings as C5a inhibitors” (CHEMOCENTRYX, INC., priority 2017, dated 2022).

In the assay the target is T1, C5aR (Homo sapiens, UniProt P21730).
T1 construct: U937 cells are a monocytic cell line which express C5aR; host or cells: U937 cells (cAMP treated) or isolated neutrophils
T1 sequence (P21730 1-350): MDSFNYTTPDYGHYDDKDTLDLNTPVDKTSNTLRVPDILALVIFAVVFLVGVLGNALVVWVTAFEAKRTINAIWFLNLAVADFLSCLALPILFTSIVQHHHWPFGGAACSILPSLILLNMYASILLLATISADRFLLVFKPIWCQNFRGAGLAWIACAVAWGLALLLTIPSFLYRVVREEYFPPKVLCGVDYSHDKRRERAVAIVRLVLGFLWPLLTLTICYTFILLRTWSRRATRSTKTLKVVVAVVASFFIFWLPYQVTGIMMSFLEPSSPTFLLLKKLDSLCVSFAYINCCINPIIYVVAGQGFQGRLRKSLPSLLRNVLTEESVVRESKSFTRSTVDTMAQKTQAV
As to the kind of experiment: chemotaxis assay (C5aR mediated migration). The following applies: migration of U937 or neutrophil cells toward C5a (0.03 nM), 1.5 hours at 37° C., read-out: Mig IC50. Format: cell-based. Here is the method:
U937 cells are a monocytic cell line which express C5aR, and are available from ATCC (VA). […] Cells were grown under 5% CO2/95% air, 100% humidity at 37° C. and subcultured twice weekly at 1:6 (cells were cultured at a density range of 1×10^5 to 2×10^6 cells/mL) and harvested at 1×10^6 cells/mL. Prior to assay, cells are treated overnight with 0.5 mM of cyclic AMP (Sigma, Ohio) and washed once prior to use. cAMP treated U937 cells can be used in C5aR ligand binding and functional assays.
Optionally, human or murine neutrophils can be used to assay for compound activity. Neutrophils may be isolated from fresh human blood using density separation and centrifugation. Briefly, whole blood is incubated with equal parts 3% dextran and allowed to separate for 45 minutes. After separation, the top layer is layered on top of 15 mls of Ficoll (15 mls of Ficoll for every 30 mls of blood suspension) and centrifuged for 30 minutes at 400×g with no brake. The pellet at the bottom of the tube is then isolated and resuspended into PharmLyse RBC Lysis Buffer (BD Biosciences, San Jose, Calif.) after which the sample is again centrifuged for 10 minutes at 400×g with brake. The remaining cell pellet is resuspended as appropriate and consists of isolated neutrophils.
Optionally, compounds may be further assayed for their ability to inhibit chemotaxis in cells. Chemotaxis assays are performed using 5 μm pore polycarbonate, polyvinylpyrrolidone-coated filters in 96-well chemotaxis chambers (Neuroprobe; Gaithersburg, Md.) using chemotaxis buffer (Hank's balanced salt solution (HBSS) and 1% FBS). C5aR ligands (i.e., C5a, R&D Systems; Minneapolis, Minn.) are use to evaluate compound mediated inhibition of C5aR mediated migration. Other chemokines (i.e., SDF-1α; R&D Systems; Minneapolis, Minn.) are used as specificity controls. […] The chambers are incubated 1.5 hours at 37° C., and the number of cells in the lower chamber quantified either by direct cell counts in five high powered fields per well or by the CyQuant assay (Molecular Probes), a fluorescent dye method that measures nucleic acid content and microscopic observation.
As usually defined, the IC50 is the concentration that gives 50% inhibition. As for `CCc1cccc(CC)c1-n1nc2c(c1-c1ccc(OC)c3[nH]ncc13)CN(c1ncc(C(F)(F)F)cn1)CC2` [Example 1.053], the IC50 was below 5 nM.

As for `Cc1cccc(C)c1-n1nc2c(c1-c1cc(Cl)c3[nH]ccc3c1)CN(c1ncc(Cl)cc1Cl)CC2` [Example 1.191], the IC50 was 50 to 500 nM.

Consider `CCc1cccc(CC)c1-n1nc2c(c1-c1cc(F)c(F)c3[nH]ccc13)CN(c1ccc(C(F)(F)F)cn1)CC2` [Example 1.116], for which the IC50 is 5 to 50 nM.

Take `Cc1cccc(C)c1-n1nc2c(c1-c1c(F)cc(C)c3[nH]ccc13)CN(c1ncc(C(F)(F)F)cc1F)CC2` [Example 1.095]: the IC50 is below 5 nM.

For the molecule `CCc1cccc(CC)c1-n1nc2c(c1-c1ccc(Cl)c3[nH]ccc13)CN(c1ncc(C)c(CO)n1)CC2` [Example 1.072], the IC50 is 5 to 50 nM.

For the molecule `CCc1cccc(CC)c1-n1nc2c(c1-c1c(F)cc(Cl)c3[nH]ccc13)CN(c1ncc(C(C)C)cc1F)CC2` [Example 1.125], the IC50 was below 5 nM.

For `Cc1cccc(C)c1-n1nc2c(c1-c1ccc3[nH]cc(C#N)c3c1)CN(c1ncc(Cl)cc1Cl)CC2` [Example 1.190], the IC50 is above 500 nM.

With `CCc1cccc(CC)c1-n1nc2c(c1-c1cc(F)c(C)c3[nH]ccc13)CN(c1ncc(C(F)(F)F)cc1F)CC2` [Example 1.123], the IC50 was below 5 nM.

Take `CCc1cccc(CC)c1-n1nc2c(c1-c1ccc(Cl)c3[nH]c(C)nc13)CN(c1ncc(C(F)(F)F)cn1)CC2` [Example 1.038]: the IC50 is 5 to 50 nM.

In the case of `COc1cccc(C)c1-n1nc2c(c1-c1ccc3[nH]ccc3c1)CN(C(=O)OC(C)(C)C)CC2` [Example 1.134], the IC50 lay within 50 to 500 nM.

As for `CCc1cccc(CC)c1-n1nc2c(c1-c1ccc(F)c3[nH]ccc13)CN(c1ncc(C(C)C)cc1F)CC2` [Example 1.180], the IC50 was below 5 nM.

Turning to `CCc1cccc(CC)c1-n1nc2c(c1-c1c(F)cc(C)c3[nH]ccc13)CN(c1ccc(C(F)(F)F)cn1)CC2` [Example 1.143], the IC50 was below 5 nM.

As to `CCc1cccc(CC)c1-n1nc2c(c1-c1ccc3[nH]c(C)nc3c1)CN(c1ncc(C(F)(F)F)cn1)CC2` [Example 1.016], the IC50 is above 500 nM.

For the molecule `CCc1cccc(CC)c1-n1nc2c(c1-c1cc(Cl)c(C)c3[nH]ccc13)CN(c1ncc(C(F)(F)F)cc1F)CC2` [Example 1.080], the IC50 is below 5 nM.

On to `CCc1cccc(CC)c1-n1nc2c(c1-c1c(F)cc(C)c3[nH]ccc13)CN(c1ncc(C(C)C)cn1)CC2` [Example 1.139], for which the IC50 was below 5 nM.

As to `CCc1cccc(CC)c1-n1nc2c(c1-c1ncnc3[nH]ccc13)CN(c1ncc(C(F)(F)F)cn1)CC2` [Example 1.026], the IC50 was 5 to 50 nM.

`Cc1cccc(C)c1-n1nc2c(c1-c1ccc(Cl)c3[nH]ccc13)CN(c1ncc(Cl)cn1)CC2` [Example 1.155]: the IC50 was in the range of 5 to 50 nM.

Regarding `CCc1cccc(CC)c1-n1nc2c(c1-c1ccc(OC)c3[nH]ncc13)CN(c1ncc(C(F)(F)F)cc1F)CC2` [Example 1.052], the IC50 lay within 5 to 50 nM.

As to `Cc1cccc(C)c1-n1nc2c(c1-c1c(F)cc(Cl)c3[nH]ccc13)CN(c1ncc(C(C)C)cc1F)CC2` [Example 1.105], the IC50 lay within 5 to 50 nM.

As for `CCc1cccc(CC)c1-n1nc2c(c1-c1ccc(Cl)c3[nH]ccc13)CN(c1ncc(C(N)=O)cn1)CC2` [Example 1.064], the IC50 fell in the range of 50 to 500 nM.

As to `CCc1cccc(CC)c1-n1nc2c(c1-c1ccc(Cl)c3[nH]ccc13)CN(c1ncc(C3CC3)cc1F)CC2` [Example 1.071], the IC50 is below 5 nM.

In the case of `CCc1cccc(CC)c1-n1nc2c(c1-c1ccc(F)c3[nH]ccc13)CN(c1ncc(C(F)(F)F)cn1)CC2` [Example 1.179], the IC50 is below 5 nM.

`Cc1cccc(OCC(C)C)c1-n1nc2c(c1-c1ccc3cc[nH]c3c1)CN(CC(C)(C)C)CC2` [Example 1.236]: the IC50 lay within 50 to 500 nM.

As to `CCc1cccc(CC)c1-n1nc2c(c1-c1ccc(Cl)c3[nH]ccc13)CN(c1nccc(C(F)(F)F)n1)CC2` [Example 1.138], the IC50 was below 5 nM.

With `Cc1cccc(OCC(C)C)c1-n1nc2c(c1-c1ccc3[nH]ccc3c1)CN(C(=O)OCc1ccccc1)CC2` [Example 1.238], the IC50 was in the range of 5 to 50 nM.

As for `CCc1cccc(CC)c1-n1nc2c(c1-c1ccc(C(=O)OC)c3[nH]ccc13)CN(c1ncc(C(F)(F)F)cc1F)CC2` [Example 1.172], the IC50 was below 5 nM.

As to `Cc1cccc(C)c1-n1nc2c(c1-c1ccc(C)c3[nH]ccc13)CN(c1ccc(C(F)(F)F)cn1)CC2` [Example 1.130], the IC50 lay within 5 to 50 nM.

Regarding `CCc1cccc(CC)c1-n1nc2c(c1-c1ccc(Cl)c3[nH]ccc13)CN(c1ncc(C(C)C)cn1)CC2` [Example 1.167], the IC50 is below 5 nM.

As to `Cc1cccc(C)c1-n1nc2c(c1-c1ccc(Cl)c3[nH]ncc13)CN(c1ncc(C(F)(F)F)cn1)CC2` [Example 1.049], the IC50 was in the range of 5 to 50 nM.

As to `Cc1cccc(OCC(C)C)c1-n1nc2c(c1-c1ccc3[nH]ccc3c1)CN(Cc1ccccc1C(F)(F)F)CC2` [Example 1.235], the IC50 was below 5 nM.

Consider `Cc1cccc(C)c1-n1nc2c(c1-c1ccc(Cl)c3[nH]ccc13)CN(c1ncc(C(C)C)cn1)CC2` [Example 1.151], for which the 50% inhibitory concentration (IC50) was below 5 nM.

`CCc1cccc(CC)c1-n1nc2c(c1-c1c(F)cnc3[nH]ccc13)CN(c1ncc(C(F)(F)F)cn1)CC2` [Example 1.014]: the IC50 lay within 5 to 50 nM.

`CCc1cccc(CC)c1-n1nc2c(c1-c1cc(F)c(OC)c3[nH]ncc13)CN(c1ncc(C(F)(F)F)cc1F)CC2` [Example 1.051]: the IC50 was below 5 nM.

Turning to `COc1cnc(N2CCc3nn(-c4c(C)cccc4C)c(-c4ccc(C)c5[nH]ccc45)c3C2)nc1` [Example 1.114], the IC50 fell in the range of 5 to 50 nM.

Regarding `Cc1cccc(OCC(C)C)c1-n1nc2c(c1-c1ccc3[nH]ccc3c1)CN(C(C)c1ccccc1C(F)(F)F)CC2` (stereo not shown) [Example 1.233], the IC50 was below 5 nM.

Regarding `CCc1cccc(CC)c1-n1nc2c(c1-c1c(F)cc(Cl)c3[nH]ccc13)CN(c1ncc(C(C)C)cn1)CC2` [Example 1.132], the IC50 is below 5 nM.

As for `CCc1cccc(CC)c1-n1nc2c(c1-c1ccc(Cl)c3[nH]ccc13)CN(c1ncc(Cl)cn1)CC2` [Example 1.160], the IC50 was below 5 nM.

In the case of `Cc1cccc(C)c1-n1nc2c(c1-c1ccc(C)c3[nH]ccc13)CN(c1ncc(C(F)(F)F)cc1F)CC2` [Example 1.108], the IC50 fell in the range of 5 to 50 nM.

Turning to `CCc1cccc(CC)c1-n1nc2c(c1-c1ccc(Cl)c3[nH]ccc13)CN(c1ncc(C(F)(F)F)cc1C)CC2` [Example 1.088], the IC50 is below 5 nM.

As to `CCc1cccc(CC)c1-n1nc2c(c1-c1ccc(F)c3[nH]ncc13)CN(c1ncc(C(F)(F)F)cc1F)CC2` [Example 1.079], the IC50 is 50 to 500 nM.

In the case of `CCc1cccc(CC)c1-n1nc2c(c1-c1cc(F)c(OC)c3[nH]ncc13)CN(c1ncc(C(F)(F)F)cn1)CC2` [Example 1.056], the IC50 is below 5 nM.

As for `CCc1cccc(CC)c1-n1nc2c(c1-c1ccc3[nH]ccc3c1)CN(C1CCOCC1)CC2` [Example 1.208], the IC50 was in the range of 50 to 500 nM.

Regarding `CCc1cccc(CC)c1-n1nc2c(c1-c1ccc(F)c3[nH]ccc13)CN(c1ncc(C(F)(F)F)cc1F)CC2` [Example 1.188], the IC50 was below 5 nM.

For `CCc1cccc(CC)c1-n1nc2c(c1-c1ccc(Cl)c3[nH]ccc13)CN(c1ncc(Cl)cc1F)CC2` [Example 1.099], the IC50 is below 5 nM.

Turning to `Cc1cccc(C)c1-n1nc2c(c1-c1ccc(Cl)c3[nH]ccc13)CN(c1ncc(C(F)(F)F)cc1F)CC2` [Example 1.169], the IC50 lay within 5 to 50 nM.

Turning to `CCc1cccc(CC)c1-n1nc2c(c1-c1c(F)cc(Cl)c3[nH]ccc13)CN(c1ccc(C(F)(F)F)cn1)CC2` [Example 1.133], the IC50 was below 5 nM.

Turning to `CCc1cccc(CC)c1-n1nc2c(c1-c1ccc(Cl)c3[nH]ccc13)CN(c1ncc(C(F)(F)F)cn1)CC2` [Example 1.161], the IC50 is below 5 nM.

Take `CCC(CC)N1CCc2nn(-c3c(C)cccc3OCC(C)C)c(-c3ccc4[nH]ccc4c3)c2C1` [Example 1.207]: the IC50 lay within 5 to 50 nM.

On to `CCc1cccc(CC)c1-n1nc2c(c1-c1cc(F)c(OC)c3[nH]c(Cl)nc13)CN(c1ncc(C(F)(F)F)cn1)CC2` [Example 1.021], for which the IC50 was in the range of 50 to 500 nM.
